# Assay results taken from patent publication US7989466B2, “Methods to inhibit or augment an inflammatory response” (Cambridge Enterprise Limited, priority 1999, dated 2011).
# Positions of bridges follow the written chain, without caps; N, C: chain ends. Non-standard residues stand in square brackets, D forms with d. No end group written: not given here.
# Key:
# [1] = test system: MCP-1 induced THP-1 migration; assay: THP-1 trans-well migration assay, MCP-1 as chemoattractant; format: cell-based, human; settings: for MCP-1 ED-50: ns = not significantly different from control
# Procedure, shortened: (§1)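 5×10^4 THP-1 cells with serially diluted peptide in upper chamber, 5 µm filter, recombinant human chemokine 50 ng/ml (5.9 nM) in lower chamber. Incubated 4 h at 37 °C. Migrated cells counted by MTT staining, A595 read against a THP-1 standard curve.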
# [2] = biological target: T1, short splice variant D2 dopamine receptor (Homo sapiens, UniProt P14416); assay: Dopamine receptor membrane binding (3H-Spiperone); settings: 100 μM highest concentration tested; read-out: ED50 for competition of spiperone binding to short splice variant D2 dopamine receptor
# T1 construct: purchased RBI/Sigma D-179
# Method: For dopamine receptor binding, membranes (D-179, RBI/Sigma) are diluted into binding buffer (75 mM Tris pH 7.4, 12.5 mM MgCl2 and 2 mM EDTA). For example, 10 μl of membranes are diluted in 500 μl of binding buffer (i.e., 1:50 dilution), which is aliquoted into labelled tubes. Cold competitor or test competitor is added, (e.g., 5 μl of 100× stock solution; 5 μl of 1 mM haloperidol solution (H-100, RBI/Sigma in DMSO). Radioligand is then added (3H-Spiperone, TRK 818, Amersham, 250 μCi in 250 μl, 10.5 μM at 95 Ci/mmol). For competition studies, 0.5 nM is used. A 100× stock (i.e., 50 nM) is made by diluting the commercial stock 1:210 in binding buffer, and 5 μl is added to every tube. Control tubes have radioligand but no membranes. The mixtures are vortexed, then spun very briefly. The mixtures are then incubated for 1 hour at 27° C. in a water bath. The mixture is filtered through GF/C filters over a vacuum. Each filter is pre-soaked in polyethyleneimine (0.3% in water; add 1 ml of 10% stock (P-261; RBI/Sigma) to 33 ml of MilliQ water). The tubes are washed with 2-3 ml of wash buffer (50 mM Tris pH 7.4) and the wash filtered. The filters are then rinsed with 3×5 ml of wash buffer, air dried, placed in a scintillation vial and 4.5 ml of scintillant added. The activity on the filter is then determined.
# [3] = in vivo; cited from earlier work
# [4] = test system: SDF-1α induced THP-1 migration; assay: THP-1 trans-well migration assay, SDF-1α as chemoattractant; format: cell-based, human; settings: ns = not significantly different from control
# Procedure, shortened: as §1
# [5] = test system: gp120; settings: ns = not significantly different from control; >100 = ED50 not determined
# [6] = test system: HIV; format: cell-based; settings: ns = not significantly different from control
# [7] = test system: MIP1α induced THP-1 migration; assay: THP-1 trans-well migration assay, MIP1α as chemoattractant; format: cell-based, human; settings: ns = not significantly different from control
# Procedure, shortened: as §1
# [8] = biological target: T2, Duffy Antigen Receptor for Chemokines (DARC) (Homo sapiens, UniProt Q16570); assay: DARC binding: competition with 125I-MCP-1 on red blood cells; settings: ns = not significantly different from control; >100 = ED50 not determined
# T2 sequence (Q16570 1-336): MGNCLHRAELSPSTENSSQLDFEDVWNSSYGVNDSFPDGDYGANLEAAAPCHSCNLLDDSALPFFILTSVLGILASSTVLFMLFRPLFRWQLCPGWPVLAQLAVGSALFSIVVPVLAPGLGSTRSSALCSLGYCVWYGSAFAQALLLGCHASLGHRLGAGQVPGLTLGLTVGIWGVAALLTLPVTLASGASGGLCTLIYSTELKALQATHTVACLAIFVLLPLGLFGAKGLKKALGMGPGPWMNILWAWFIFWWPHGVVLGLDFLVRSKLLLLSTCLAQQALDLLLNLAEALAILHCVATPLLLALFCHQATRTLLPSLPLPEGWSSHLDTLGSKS
# [9] = biological target: T3, CCR5 (Homo sapiens, UniProt P51681); assay: Scatchard analysis of labeled RANTES binding to CCR5 HOS cells; settings: 4° C., 2 hours, read-out: affinity of RANTES binding sites
# T3 construct: host or cells: HOS cells
# Method: To establish the kinetics of labeled RANTES binding to CCR5, CCR5 cells and their parental line were exposed to labeled RANTES at 0.05 nM in the absence or presence of a 500-fold excess of unlabeled RANTES. Binding was performed at either 4° C. or room temperature for various periods between 30 minutes and 4 hours. All data was collected in triplicate. Equilibrium was achieved slightly quicker at room temperature than 4° C., and that in both cases binding was complete by 2 hours (FIG. 22A). […] Based on this experiment, all binding experiments were done at 4° C. for 2 hours.
# A Scatchard analysis was performed under the conditions determined to represent equilibrium binding. The purpose of this experiment was to estimate the number of high affinity binding sites (CCR5 receptors) on the cell surface, since the full Scatchard analysis is performed under conditions where the binding was limited by availability of binding sites, not by number of molecules RANTES added. The result indicated about 80,000 binding sites per cell on the parental line and about 200,000-400,000 binding sites per cell on the high expressing CCR5 line. Using this information, the conditions necessary to perform a full 12-point Scatchard analysis at equilibrium, limited by binding site number, were calculated. […]
# [10] = test system: RANTES induced THP-1 migration; assay: THP-1 trans-well migration assay, RANTES as chemoattractant; format: cell-based, human; settings: tripeptide at 100 μM, mean ± range; dash = no statistically significant reduction in migration
# Method: To determine whether an agent inhibits a chemokine-induced activity, such as macrophage recruitment, varying amounts of the agent are mixed with cells in the presence of a known chemoattractant. For example, a range of known concentrations of an agent, e.g., a chemokine peptide, is incubated with a defined number (e.g., 10^4-10^6) of human THP-1 monocyte cells in individual wells of the top compartment of a trans-well plate. Chemokine (such as MCP-1, MIP1α, IL8 or SDF-1α), at a concentration known to cause significant migration of THP-1 cells in the trans-well migration assay, is placed in the lower compartment (FIG. 1). […] A standard curve consisting of a two-fold dilution series of THP-1 cells (in 29 μl) is prepared to accurately quantify the number of cells that have migrated. […] Absorbance of converted dye is measured at a wavelength of 595 nm using an ELISA plate reader. The number of migrated cells in each well is then determined by interpolation of the standard curve (see also Imai et al., J. Biol. Chem., 272, 15036 (1997)). […]
# After incubation, the cells were gently removed from the top of the filter with a pipette, 20 μl of 20 mM EDTA in PBS was added into each top well, and the mixture was incubated for 20 minutes at 4° C. […] A standard curve was prepared to accurately quantify the number of THP-1 cells that had migrated. […]
# [11] = test system: TGF-beta receptor of THP-1 cells; assay: Binding of biotinylated TGF-beta peptides to THP-1 cells; set-up: species or system human; settings: for EC50: biotinylated peptide, read-out: ED50 of binding to the TGF-beta receptor of THP-1 cells
# T3 sequence (P51681 whole entry): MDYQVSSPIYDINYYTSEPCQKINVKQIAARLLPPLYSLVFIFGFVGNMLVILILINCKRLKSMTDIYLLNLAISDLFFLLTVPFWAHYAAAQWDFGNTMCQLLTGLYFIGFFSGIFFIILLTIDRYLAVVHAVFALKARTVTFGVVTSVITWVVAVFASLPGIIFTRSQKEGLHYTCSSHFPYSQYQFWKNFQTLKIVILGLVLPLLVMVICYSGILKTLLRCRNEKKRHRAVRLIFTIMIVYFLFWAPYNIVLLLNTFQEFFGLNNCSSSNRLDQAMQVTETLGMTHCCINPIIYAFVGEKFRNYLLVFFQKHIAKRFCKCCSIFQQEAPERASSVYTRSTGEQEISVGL
# T1 sequence (P14416 1-414 isoform P14416-2): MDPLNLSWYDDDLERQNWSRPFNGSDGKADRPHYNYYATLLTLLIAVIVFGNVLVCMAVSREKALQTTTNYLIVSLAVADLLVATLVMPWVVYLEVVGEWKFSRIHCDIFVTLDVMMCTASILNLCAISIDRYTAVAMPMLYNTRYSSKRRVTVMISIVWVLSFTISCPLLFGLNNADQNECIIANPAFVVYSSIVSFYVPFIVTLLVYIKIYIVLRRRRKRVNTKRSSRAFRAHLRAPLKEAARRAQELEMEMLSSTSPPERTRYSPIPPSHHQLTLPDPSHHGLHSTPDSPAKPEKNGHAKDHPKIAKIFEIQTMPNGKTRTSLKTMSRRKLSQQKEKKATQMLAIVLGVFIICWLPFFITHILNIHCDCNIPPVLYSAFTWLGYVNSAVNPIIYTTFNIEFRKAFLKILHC
compound,measurement,setting,value
"O=C1CCC(N2C(=O)c3ccccc3C2=O)C(=O)N1 (centres unmarked) [Thalidomide, reference compound]","activity in the MCP-1 induced THP-1 migration assay, in words",[1],at 100 μM also inhibited THP-1 migration induced by MCP-1
same,EC50,"[1]; Homo sapiens, THP-1, agent with the cells in the upper compartment, n.s. = no statistically significant inhibition (p > 0.05), read-out: ED50 versus MCP-1, inhibition of THP-1 migration",~50 µM
same,IC50,[2],> 100 µM
NCC[C@H](O)C(=O)N[C@@H]1C[C@H](N)[C@@H](O[C@H]2O[C@H](CN)[C@@H](O)[C@H](O)[C@H]2O)[C@H](O)[C@H]1O[C@H]1O[C@H](CO)[C@@H](O)[C@H](N)[C@H]1O [amikacin],T1/2,[3],about 2 hours
same,Vd,[3],0.27 L/kg
same,urinary excretion,[3],98%
=cvaekpsksstirrysc= ([dC][dV][dA][dE][dK][dP][dS][dK][dS][dS][dT][dI][dR][dR][dY][dS][dC]; disulfide 1-17 (inferred); not fully specified (C-terminus); printed as =cvaekpsksstirrysc=),MCP-1 ED-50,[1],ns
same,SDF1a ED-50,[4],ns
same,gp120 ED-50,[5],ns
same,% virus inhibition,[6],ns
same,MIPIa ED-50,[7],ns
CSKPGV,MCP-1 ED-50,[1],ns
same,SDF1a ED-50,[4],ns
same,gp120 ED-50,[5],ns
same,% virus inhibition,[6],ns
same,MIPIa ED-50,[7],ns
same,DARC binding,[8],ns
DYFETSSQC,MCP-1 ED-50,[1],ns
same,SDF1a ED-50,[4],ns
same,gp120 ED-50,[5],ns
same,% virus inhibition,[6],ns
same,MIPIa ED-50,[7],ns
same,DARC binding,[8],ns
RANTES,Kd,[9],~0.001 µM
SES,percentage inhibition of migration induced by RANTES,[10],87 ± 4%
SYRRI,MCP-1 ED-50,[1],ns
same,SDF1a ED-50,[4],ns
same,gp120 ED-50,[5],ns
same,% virus inhibition,[6],ns
same,MIPIa ED-50,[7],ns
same,DARC binding,[8],ns
TSSKC,MCP-1 ED-50,[1],ns
same,SDF1a ED-50,[4],ns
same,gp120 ED-50,[5],ns
same,% virus inhibition,[6],ns
same,MIPIa ED-50,[7],ns
same,DARC binding,[8],ns
biotinylated HEPKGYHANFC [Biotinylated T2],"receptor character (agonist, antagonist, neutral)",[11],weak receptor antagonist
same,EC50,[11],30 µM
"biotinylated LYIDFRQDLGWKW (also: biotinylated, site not given here) [Biotinylated T1]","receptor character (agonist, antagonist, neutral)",[11],receptor neutral agent
same,EC50,[11],18 µM
vgpkscqsstefyd,MCP-1 ED-50,[1],ns
same,SDF1a ED-50,[4],ns
same,gp120 ED-50,[5],ns
same,% virus inhibition,[6],ns
same,MIPIa ED-50,[7],ns
same,DARC binding,[8],ns
